Test results reported in ChEMBL document CHEMBL1156829 (Proc Natl Acad Sci U S A, 2008).
pEC50: −log10 of the molar value.

How the values were obtained:
Plasmodium falciparum [1] = test: NOVARTIS: Inhibition of Plasmodium falciparum W2 (drug-resistant) proliferation in erythrocyte-based infection assay; format: functional, organism-based; conditions: for pEC50: Plasmodium falciparum, W2, read-out: EC50
[2] = NOVARTIS: Cytotoxicity against human hepatocellular carcinoma cell line (Huh7); format: toxicity, cell-based, Huh-7; conditions: Huh7 cells (hepatocellular carcinoma cell line)
Plasmodium falciparum [3] = test: NOVARTIS: Inhibition of Plasmodium falciparum 3D7 (drug-susceptible) proliferation in erythrocyte-based infection assay; format: functional, organism-based; conditions: Plasmodium falciparum, 3D7

SMILES | pEC50 (Plasmodium falciparum [1]) | CC50 [2] [nM] | pEC50 (Plasmodium falciparum [3]) | EC50 (Plasmodium falciparum [1])
Cc1ccc(NC(=O)N(CCCN(C)C)Cc2cc3cc4c(cc3[nH]c2=O)OCO4)cc1 | 6.63 | > 100000 | 5.89 | 
C[C@H]1C[C@H](C)C(=O)[C@@H]([C@@H](O)CC2CC(=O)NC(=O)C2)C1 | 7.17 | 304 | 7.66 | 
Cc1cc(C)n(-c2ccc(NC(=O)C3CCN(Cc4cc(C)c(C)o4)CC3)cc2)n1 | < 5.90 | > 10000 | 6.05 | 
O=c1c2ccccc2[nH]c2ccc(I)cc12 | 6.38 | > 100000 | 6.41 | 
CCC(C)NC(=O)c1nn(-c2cccc(OC)c2)c(=O)c2ccccc12 (configuration not stated) | 5.42 | > 100000 | 5.71 | 
C=C(C)C(=O)OCCc1ccc(O)c(-n2nc3ccccc3n2)c1 | 5.99 | > 10000 | < 5.90 | 
CC1=NNC(=O)C1C(c1ccc(Cl)cc1Cl)C1C(=O)NN=C1C (configuration not stated) | < 5.90 | > 10000 | < 6.32 | 
C/C=C/c1n(C)c2ccccc2[n+]1C | 6.23 | > 10000 | 6.30 | 
CCCCCCCCCC(=O)N(C)CCCNc1ccnc2cc(Cl)ccc12 | 6.69 | 5710 | 6.90 | 
COc1ccccc1NC(=O)Cn1cnc2sc(C(=O)Nc3ccc(F)cc3)c(C)c2c1=O | < 5.77 | > 10000 | 6.29 | 
CC(C)(CCl)C(=O)NCCCCNc1ccnc2cc(Cl)ccc12 | 6.44 | > 11300 | 6.41 | 
Cc1ccc(C(C(=O)NC2CCCCC2)N(C(=O)c2ccc(-c3ccccc3)[nH]2)c2ccc(C3CCCCC3)cc2)o1 (configuration not stated) | 5.83 | > 100000 | 5.93 | 
COc1ccc(C(OCC(=O)N2CCSCC2)c2ccncc2Cl)cc1 (configuration not stated) | 5.84 | > 100000 | < 4.91 | 
CCC(C)NC(=O)CSc1nnc(-c2cccnc2)n1-c1ccc(Cl)cc1 (configuration not stated) | < 5.96 | > 10000 | < 5.82 | 
COc1cc(C=C(C#N)c2nc3ccccc3[nH]2)ccc1OCc1ccccc1Cl | 5.93 | > 100000 | 6.12 | 
CCC(CC)CN1CCC(O)(c2ccc3oc(C(=O)Nc4ccc(OC)c(OC)c4)cc3c2)CC1 | 6.44 | > 85800 | 6.46 | 
O[C@H]1[C@H]2c3cc4c(cc3CN3CCC(=C[C@@H]1O)[C@H]23)OCO4 [LYCORINE] | 6.81 | 66100 | 6.22 | 
CC(C)C1Oc2cc3oc(=O)ccc3cc2C1=NO (configuration not stated) | 6.13 | > 10000 | < 5.94 | 
COc1cc(C(=O)C=CNc2ccc(N(C)C)cc2)cc(OC)c1OC | 6.04 | > 100000 | 5.68 | 
COc1cccc(-c2nc(CS(=O)(=O)CC(=O)N3CC(C)CC(C)C3)c(C)o2)c1 (configuration not stated) | < 5.90 | > 10000 | 6.87 | 
COc1cc(OC)cc(C(=O)NCc2n[nH]c(=S)n2-c2cccc(C(F)(F)F)c2)c1 | 6.58 | > 100000 | 6.59 | 
Cc1cc(C)cc(NC(=S)NCCO)c1 | 6.29 | > 100000 | 5.41 | 
CCCOC(=O)C1=C(C)NC2=C(C(=O)CC(c3ccc(OC)c(OC)c3)C2)C1c1ccccc1C (configuration not stated) | 8.01 | > 100000 | 7.90 | 

SMILES | pEC50 (Plasmodium falciparum [1]) | CC50 [2] [nM] | pEC50 (Plasmodium falciparum [3]) | EC50 (Plasmodium falciparum [1])
Oc1c2c(nc3cc(-c4ccccc4)nn13)CCCC2 | < 4.90 | > 100000 | 5.72 | 
COc1ccc2nc3ccccc3c(N)c2c1 | 6.76 | 5720 | 6.88 | 
COCCn1c(=S)[nH]c2cc(C(=O)NCCc3ccc(S(N)(=O)=O)cc3)ccc2c1=O | < 5.90 | > 10000 | < 5.97 | 
CC[n+]1c(/C=C/N(C)c2ccccc2)sc(-c2ccccc2)c1-c1ccccc1 | 6.20 | > 10000 | 5.96 | 
CC(C)(C)NC(=O)C(c1cccs1)N(CCCN1CCOCC1)C(=O)c1ccc(-c2ccccc2)[nH]1 (configuration not stated) | 5.96 | > 10000 | 5.91 | 
COc1ccc(NC(=O)CCn2c(=S)oc3ccccc32)c([N+](=O)[O-])c1 | < 6.46 | > 10000 | < 5.90 | 
Nc1nc(Nc2cccc(Cl)c2)n[nH]1 | 6.02 | > 100000 | 5.77 | 
COCCCNC(=O)CSCc1nc(-c2ccccc2F)oc1C | < 5.76 | > 10000 | < 6.33 | 
CSC1=NC(=Nc2ccccc2C)C2(CCC(C(C)(C)C)CC2)N1c1ccc(O)cc1 (configuration not stated) | 6.68 | > 10000 | 6.61 | 
O=C(NCc1ccccc1)c1cnc(NCCCn2ccnc2)nc1NC1CCCC1 | 5.88 | > 10000 | 6.20 | 
CCN(CC)c1ccc(C=C(C#N)c2nc3ccccc3[nH]2)o1 | < 5.57 | 46200 | 5.47 | 
CCOC(=O)c1[nH]c(C)c(CNc2cccc(OC)c2)c1C | 5.92 | 6980 | 5.82 | 
Cc1ccc(-c2noc(C3CCN(C(=O)Nc4ccc(C#N)cc4)CC3)n2)o1 | 5.90 | > 100000 | 5.88 | 
CC(=O)N(C1=C(N(C)C)C(=O)c2ccccc2C1=O)c1ccc(Cl)c(Cl)c1 | 7.13 | 8350 | 7.09 | 
CCc1c(C)c(=N)c2ccccc2n1C | 6.27 | > 100000 | 6.15 | 
CC(C)n1nnnc1CN1CCN(c2ccccc2F)CC1 | < 5.93 | > 10000 | < 5.83 | 
Nc1cc(OC(=O)c2ccccc2)nn1S(=O)(=O)c1ccc(Cl)cc1 | 6.03 | > 10000 | < 5.90 | 
COc1cccc(C2(NC(=O)CCn3ccnc3-c3ccccc3)CCCC2)c1 | 5.75 | > 10000 | < 5.90 | 
COc1cccc(N2CCN(CCNCCOc3ccccc3)[C@@H](Cc3ccccc3)C2)c1 | 6.42 | > 7310 | 6.15 | 
CC(=O)Nc1ccc(C2NC(=O)NC3=Nc4ccccc4SC(c4ccccc4)=C32)cc1 (configuration not stated) | 6.16 | > 100000 | 5.99 | 
O=C(Nc1ccc(C2=NCCN2)c(Cl)c1)c1ccc(C(=O)Nc2ccc(C3=NCCN3)c(Cl)c2)cc1 | 6.63 | > 10000 | 6.26 | 
CCOc1ccc(NC(=O)C(C)Sc2nc3ccccc3[nH]2)cc1 (configuration not stated) | < 5.12 | > 100000 | < 4.90 | 
Cc1ccc(Nc2nc(N)c3ccccc3n2)cc1Cl | 6.12 | 8920 | 6.28 | 

SMILES | pEC50 (Plasmodium falciparum [1]) | CC50 [2] [nM] | pEC50 (Plasmodium falciparum [3]) | EC50 (Plasmodium falciparum [1])
CC(C)(C)c1cc(CCC(=O)Nc2c3c(nc4ccccc24)N(c2cccc(Cl)c2)CC3)cc(C(C)(C)C)c1O |  | > 100000 | 5.18 | No fit
C=CCNC(=O)CSc1ccc(C(=O)Nc2ccc(Cl)cc2F)cc1[N+](=O)[O-] | < 5.79 | > 10000 | < 5.93 | 
CCOC(=O)C1=CN(c2cc(C)ccc2C)C=C(C(=O)OCC)C1c1ccccc1OC | 5.89 | > 100000 | 5.35 | 
O=C(Nc1ccccc1F)NC1CC2CCCC(C1)N2CCc1ccccc1 (configuration not stated) | 6.85 | > 10600 | 6.36 | 
COc1cc(C(=O)NC(c2ccc3c(c2)OCO3)c2cc(Cl)c3cccnc3c2O)cc(OC)c1OC (configuration not stated) | 6.16 | > 10000 | 6.37 | 
CCOC(=O)c1ccc(NC(=O)c2cc3ccccn3n2)cc1 | < 6.30 | > 10000 | < 5.90 | 
CC1(C)N=C(N)N=C(N)N1c1ccc(F)cc1 | 5.73 | 51000 | 7.66 | 
CCCCNC(=O)C(CC)Sc1nnc(-c2ccc(C)cc2)c(-c2ccc(C)cc2)n1 (configuration not stated) | 5.69 | > 100000 | 6.33 | 
CCCN1CCc2c(sc3nc(SCC(=O)c4ccccc4)nc(N)c23)C1 | 6.00 | > 100000 | 5.85 | 
COc1ccc2c(c1)N(C(=O)CSc1nc3ccccc3o1)C(C)(C)c1ssc(=S)c1-2 | 6.41 | > 100000 | 6.46 | 
COc1ccccc1/C=C/CN(CCN1CCN(S(=O)(=O)c2cccc(C(F)(F)F)c2)CC1)C(=O)Cc1ccccc1 | < 5.90 | > 10000 | 5.88 | 
CCOc1ccc(/C=C(/C#N)c2nc3ccccc3[nH]2)cc1OC | 6.39 | > 10000 | 5.82 | 
CN1C=CC=C/C1=C\C=C1\C=Nc2ccccc21 | 6.65 | > 10000 | 6.56 | 
O=[N+]([O-])c1ccc(N2CCN(c3nc(NCCc4c[nH]c5ccccc45)c4ccccc4n3)CC2)cc1 | 5.70 | 14300 | 6.77 | 
CC(C)CNc1nc(NCCCN2CCCCC2C)ncc1C(=O)NCCc1ccccc1 (configuration not stated) | 6.14 | > 10000 | 6.42 | 
CCOC(=O)N1CCN(C(=O)C(=O)NNC(=O)COc2ccc(Cl)cc2Br)CC1 | 6.11 | > 10000 | < 5.90 | 
COc1ccc(NC(=O)C2=C(C)Nc3c(C(=O)Nc4ccc(C)cc4)cnn3C2c2cccc(Cl)c2)cc1 (configuration not stated) | 6.03 | > 100000 | 5.60 | 
C[n+]1c2ccccc2nc2ccc(NC3CCCCC3N)cc21.[O-][Cl+3]([O-])([O-])[O-] (configuration not stated) | 6.92 | 4210 | 6.59 | 
c1ccc(C[C@H]2CN(c3ccc4ccccc4c3)CCN2CCNCC2CCCO2)cc1 (some centres not stated) | 6.42 | 2540 | 6.56 | 
COC(=O)c1c(S(=O)(=O)NCCc2ccccc2)sc2c1CCN(Cc1cccnc1)C2 | 5.72 | > 10000 | 5.80 | 
NNc1nc(NCc2ccccc2)nc(N2CCOCC2)n1 | 7.05 | > 10000 | 7.14 | 
O[C@@H](c1cc(C(F)(F)F)nc2c(C(F)(F)F)cccc12)[C@H]1CCCCN1 | 8.62 | > 6250 | 7.29 | 
CCCN1CCC(N2C[C@@H](NC3CCCCCC3)C[C@H]2C(=O)NCCc2ccc3c(c2)OCO3)CC1 | < 6.08 | > 13000 | 5.96 | 
